{"source": "patent US11339171B2", "about": "“MDM2 inhibitors” (Gan & Lee Pharmaceuticals, priority 2017, dated 2022)", "key": {"[1]": {"assay": "Pharmacokinetics in ICR mice after intravenous and intragastric administration", "format": "in vivo", "conditions": "for MRT last: read-out: MRT(0-t); for MRT inf: read-out: MRT(0-∞); for Vd: read-out: Vz", "outline": "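Compounds were dissolved at 0.5 mg/ml in DMSO/PEG400/HP-β-CD saline vehicle and given to overnight-fasted male ICR mice, 2 mg/kg by vein or 5 mg/kg by gavage (n=3 each). Plasma was then protein-precipitated, assayed by LC-MS/MS, and PK parameters including oral bioavailability were derived.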"}, "MDM2": {"biological_target": "T1, MDM2 (Homo sapiens, UniProt Q00987)", "T1 construct": "made in house", "T1 sequence (Q00987 whole entry)": "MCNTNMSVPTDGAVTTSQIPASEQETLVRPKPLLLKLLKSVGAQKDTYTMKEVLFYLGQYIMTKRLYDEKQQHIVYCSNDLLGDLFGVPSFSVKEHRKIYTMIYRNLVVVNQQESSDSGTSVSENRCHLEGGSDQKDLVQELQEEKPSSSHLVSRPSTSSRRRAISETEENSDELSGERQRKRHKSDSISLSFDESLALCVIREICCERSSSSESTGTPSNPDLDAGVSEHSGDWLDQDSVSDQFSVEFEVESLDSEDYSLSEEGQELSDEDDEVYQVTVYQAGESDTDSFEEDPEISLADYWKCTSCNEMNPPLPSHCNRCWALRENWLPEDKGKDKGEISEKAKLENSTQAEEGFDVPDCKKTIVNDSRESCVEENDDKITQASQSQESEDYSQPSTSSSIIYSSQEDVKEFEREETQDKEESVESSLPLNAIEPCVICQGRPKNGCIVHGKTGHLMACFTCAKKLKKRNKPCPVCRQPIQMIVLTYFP", "assay": "Inhibition test of MDM2-P53 (GST-MDM2, Biotin-P53, Anti-GST-Tb, SA-XL665)", "format": "binding", "outline": "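Binding was measured by TR-FRET with GST-MDM2 at 4 nM final in PBS with 0.1% BSA, 5 mM DTT and 1 mM AEBSF. Compounds were tested as twelve-point 5-fold dilutions and incubated with the detection mix for 90 min at 25 °C with shaking before plate-reader reading and curve fitting.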"}, "[2]": {"system": "human osteosarcoma cell line SJSA-1", "assay": "Inhibition of proliferation of human osteosarcoma cell line SJSA-1 (DAPI staining, In Cell Analyzer)", "conditions": "Homo sapiens, SJSA-1, 72 h, read-out: IC50 (nM), inhibitory activity on proliferation of human osteosarcoma cell line SJSA-1, SJSA-1, incubated 72 h"}, "[3]": {"conditions": "ICR mice, IV 2 mg/kg, individual animal, 2 mg/kg"}, "[4]": {"conditions": "ICR mice, PO 5 mg/kg, individual animal, 5 mg/kg"}, "[5]": {"conditions": "male, ICR, mouse, plasma, iv, 2 mg/kg, ICR mice, IV 2 mg/kg, individual animal"}, "[6]": {"conditions": "male, ICR, mouse, plasma, iv, 2 mg/kg, ICR mice, IV 2 mg/kg, mean of 3 animals"}, "[7]": {"conditions": "male, ICR, mouse, plasma, po, 5 mg/kg, ICR mice, PO 5 mg/kg, individual animal"}, "[8]": {"conditions": "male, ICR, mouse, plasma, po, 5 mg/kg, ICR mice, PO 5 mg/kg, mean of 3 animals"}}, "note": "pIC50: −log10 of the molar value. Where “and” joins values, the source holds several entries; their conditions need not be identical. Equal entries are not always repeated. Where two headings read alike, the source gives them in different places.", "data": [{"smiles": "CCOc1cc(OC)c(-c2nc3c(n2C(C)C)[C@@]2(C(=O)Nc4cc(Cl)ccc42)N(c2cc(Cl)ccc2F)C3=O)cn1", "note": "[Example S-98, (S)-6-chloro-5′-(5-chloro-2-fluorophenyl)-2′-(6-ethoxy-4-methoxypyridin-3-yl)-3′-isopropyl-3′H-spiro[dihydroindole-3,4′-pyrrolo[3,4-d]imidazole]-2,6′(5′H)-dione]", "values": [{"measurement": "AUC(0-t)", "setting": "[1]; [3]", "value": "8.86953 µg·h/mL and 11.17715 µg·h/mL"}, {"measurement": "AUC(0-∞)", "setting": "[1]; [3]", "value": "9.10892 µg·h/mL and 12.59627 µg·h/mL"}, {"measurement": "CL", "setting": "[1]; [3]", "value": "0.22 L/h/kg and 0.159 L/h/kg"}, {"measurement": "Cmax", "setting": "[1]; [3]", "value": "3.78906 µg/mL and 3.40507 µg/mL"}, {"measurement": "MRT(0-t)", "setting": "[1]; [3]", "value": "1.43 h and 1.82 h"}, {"measurement": "MRT(0-∞)", "setting": "[1]; [3]", "value": "1.60 h and 2.60 h"}, {"measurement": "Vz", "setting": "[1]; [3]", "value": "0.37 L/kg and 0.44 L/kg"}, {"measurement": "t1/2", "setting": "[1]; [3]", "value": "1.17 h and 1.93 h"}, {"measurement": "AUC(0-t)", "setting": "[1]; [4]", "value": "37.28831 µg·h/mL and 18.06452 µg·h/mL and 23.33062 µg·h/mL"}, {"measurement": "AUC(0-∞)", "setting": "[1]; [4]", "value": "19.69136 µg·h/mL and 23.35218 µg·h/mL"}, {"measurement": "Cmax", "setting": "[1]; [4]", "value": "3.42072 µg/mL and 2.94386 µg/mL"}, {"measurement": "MRT(0-t)", "setting": "[1]; [4]", "value": "3.17 h and 4.72 h"}, {"measurement": "MRT(0-∞)", "setting": "[1]; [4]", "value": "3.82 h and 4.74 h"}, {"measurement": "Tmax", "setting": "[1]; [4]", "value": 2.00, "unit": "h"}, {"measurement": "t1/2", "setting": "[1]; [4]", "value": "2.12 h and 2.30 h"}, {"measurement": "AUC(0-inf)", "setting": "[1]; [5]", "value": 10.5, "unit": "µg·h/mL"}, {"measurement": "clearance", "setting": "[1]; [5]", "value": 0.19, "unit": "L/h/kg"}, {"measurement": "AUC(0-t)", "setting": "[1]; male, ICR, mouse, plasma, iv, 2 mg/kg, ICR mice, IV 2 mg/kg, individual animal, read-out: AUC(0-t)", "value": 10, "unit": "µg·h/mL"}, {"measurement": "Cmax", "setting": "[1]; male, ICR, mouse, plasma, iv, 2 mg/kg, ICR mice, IV 2 mg/kg, individual animal, read-out: Cmax", "value": 3.67, "unit": "µg/mL"}, {"measurement": "MRT last", "setting": "[1]; [5]", "value": 1.55, "unit": "h"}, {"measurement": "MRT inf", "setting": "[1]; [5]", "value": 1.86, "unit": "h"}, {"measurement": "Tmax", "setting": "[1]; male, ICR, mouse, plasma, iv, 2 mg/kg, ICR mice, IV 2 mg/kg, individual animal, read-out: Tmax", "value": 0.08, "unit": "h"}, {"measurement": "Vd", "setting": "[1]; [5]", "value": 0.39, "unit": "L/kg"}, {"measurement": "half-life", "setting": "[1]; male, ICR, mouse, plasma, iv, 2 mg/kg, ICR mice, IV 2 mg/kg, individual animal, read-out: t1/2 (converted)", "value": 1.43, "unit": "h"}, {"measurement": "AUC(0-inf)", "setting": "[1]; [6]", "value": 10.7, "unit": "µg·h/mL"}, {"measurement": "clearance", "setting": "[1]; [6]", "value": 0.19, "unit": "L/h/kg"}, {"measurement": "AUC(0-t)", "setting": "[1]; male, ICR, mouse, plasma, iv, 2 mg/kg, ICR mice, IV 2 mg/kg, mean of 3 animals, read-out: AUC(0-t)", "value": 10, "unit": "µg·h/mL"}, {"measurement": "Cmax", "setting": "[1]; male, ICR, mouse, plasma, iv, 2 mg/kg, ICR mice, IV 2 mg/kg, mean of 3 animals, read-out: Cmax", "value": 3.62, "unit": "µg/mL"}, {"measurement": "MRT last", "setting": "[1]; [6]", "value": 1.6, "unit": "h"}, {"measurement": "MRT inf", "setting": "[1]; [6]", "value": 2.02, "unit": "h"}, {"measurement": "Tmax", "setting": "[1]; male, ICR, mouse, plasma, iv, 2 mg/kg, ICR mice, IV 2 mg/kg, mean of 3 animals, read-out: Tmax", "value": 0.083, "unit": "h"}, {"measurement": "Vd", "setting": "[1]; [6]", "value": 0.4, "unit": "L/kg"}, {"measurement": "half-life", "setting": "[1]; male, ICR, mouse, plasma, iv, 2 mg/kg, ICR mice, IV 2 mg/kg, mean of 3 animals, read-out: t1/2 (converted)", "value": 1.51, "unit": "h"}, {"measurement": "AUC(0-inf)", "setting": "[1]; [7]", "value": 37.3, "unit": "µg·h/mL"}, {"measurement": "Cmax", "setting": "[1]; male, ICR, mouse, plasma, po, 5 mg/kg, ICR mice, PO 5 mg/kg, individual animal, read-out: Cmax", "value": 3.84, "unit": "µg/mL"}, {"measurement": "MRT last", "setting": "[1]; [7]", "value": 5.36, "unit": "h"}, {"measurement": "MRT inf", "setting": "[1]; [7]", "value": 5.38, "unit": "h"}, {"measurement": "Tmax", "setting": "[1]; male, ICR, mouse, plasma, po, 5 mg/kg, ICR mice, PO 5 mg/kg, individual animal, read-out: Tmax", "value": 4, "unit": "h"}, {"measurement": "half-life", "setting": "[1]; male, ICR, mouse, plasma, po, 5 mg/kg, ICR mice, PO 5 mg/kg, individual animal, read-out: t1/2 (converted)", "value": 2.31, "unit": "h"}, {"measurement": "AUC(0-inf)", "setting": "[1]; [8]", "value": 26.8, "unit": "µg·h/mL"}, {"measurement": "AUC(0-t)", "setting": "[1]; male, ICR, mouse, plasma, po, 5 mg/kg, ICR mice, PO 5 mg/kg, mean of 3 animals, read-out: AUC(0-t)", "value": 26.2, "unit": "µg·h/mL"}, {"measurement": "Cmax", "setting": "[1]; male, ICR, mouse, plasma, po, 5 mg/kg, ICR mice, PO 5 mg/kg, mean of 3 animals, read-out: Cmax", "value": 3.4, "unit": "µg/mL"}, {"measurement": "MRT last", "setting": "[1]; [8]", "value": 4.41, "unit": "h"}, {"measurement": "MRT inf", "setting": "[1]; [8]", "value": 4.65, "unit": "h"}, {"measurement": "Tmax", "setting": "[1]; male, ICR, mouse, plasma, po, 5 mg/kg, ICR mice, PO 5 mg/kg, mean of 3 animals, read-out: Tmax", "value": 2.67, "unit": "h"}, {"measurement": "half-life", "setting": "[1]; male, ICR, mouse, plasma, po, 5 mg/kg, ICR mice, PO 5 mg/kg, mean of 3 animals, read-out: t1/2 (converted)", "value": 2.24, "unit": "h"}, {"measurement": "AUC(0-t)", "setting": "[1]; male, ICR, mouse, plasma, po, 5 mg/kg, oral intragastric administration 5 mg/kg, read-out: AUC0-t", "value": 26.2, "unit": "µg·h/mL"}, {"measurement": "half-life", "setting": "[1]; male, ICR, mouse, plasma, po, 5 mg/kg, oral intragastric administration 5 mg/kg, read-out: half-life (converted)", "value": 2.24, "unit": "h"}, {"measurement": "bioavailability", "setting": "[1]; male, ICR, mouse, plasma, oral intragastric administration 5 mg/kg, read-out: bioavailability", "value": 105, "unit": "%"}, {"measurement": "bioavailability", "setting": "[1]; male, mouse, plasma, ICR mice, PO 5 mg/kg vs IV 2 mg/kg, from mean values, read-out: F* (bioavailability)", "value": 105, "unit": "%"}, {"measurement": "pIC50", "setting": "MDM2", "value": 8.90}, {"measurement": "IC50", "setting": "[2]", "value": 56.1, "unit": "nM"}]}]}
